In patent publication US20040029178A1, “Novel g protein-coupled receptor proteins and dnas thereof” (priority 2000, published 2004):
Peptide text beside a SMILES is read from it.

Target: T1, TGR26 (Rattus norvegicus, UniProt Q56UD9)
T1 construct: expressed in transfected cells; whole cells in A1, membrane fraction in A2 and A3
T1 sequence (Q56UD9 1-329): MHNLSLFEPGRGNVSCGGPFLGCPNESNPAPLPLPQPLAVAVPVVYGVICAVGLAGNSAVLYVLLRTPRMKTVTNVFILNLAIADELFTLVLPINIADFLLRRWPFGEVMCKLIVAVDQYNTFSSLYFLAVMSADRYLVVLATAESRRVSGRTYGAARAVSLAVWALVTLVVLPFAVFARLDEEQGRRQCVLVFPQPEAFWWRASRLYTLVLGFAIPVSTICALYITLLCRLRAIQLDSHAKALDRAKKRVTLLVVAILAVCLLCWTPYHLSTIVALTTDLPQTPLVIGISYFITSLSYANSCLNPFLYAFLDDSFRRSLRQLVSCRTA
Assay: Receptor binding using [125I-Tyr10]-hGPR8L (1-23) and membrane fraction of TGR26 expressing CHO cells
Settings: membrane fraction of TGR26 expressing CHO cells, [125I-Tyr10]-hGPR8L (1-23), method of Example 8
Method: Using [^125I-Tyr^10]-hGPR8L (1-23) prepared by the method described in Reference Example 15 and a cell membrane fraction prepared from TGR26 expressing cells as described in Example 6, a receptor binding assay was carried out as follows.
Cell membrane fraction prepared from TGR26 expressing cells was diluted to various concentration with assay buffer (25 mM Tris-HCl, 5 mM EDTA, 0.05% CHAPS (3-[(3-Cholamidopropyl) Dimethyl-Ammonio]-1-Propanesulfonate), 0.1% BSA, 0.5 mM PMSF, 1 μg/ml Pepstatin, 20 μg/ml Leupeptin, 4 μg/ml E-64, pH 7.4), and 200 μl each of the diluent was dispensed into polypropilene test tube (Falcon 2053). In order to determine an amount of maximum binding, 2 μl of DMSO and 2 μl of 7 nM [^125I-Tyr^10]-hGPR8L (1-23) were added to the membrane fraction solution. Further, in order to determine a non-specific binding, 2 μl of 100 μM hGPR8L (1-23)/DMSO solution and 2 μl of 7 nM [^125I-Tyr^10]-hGPR8L (1-23) were added to the membrane fraction solution. The reaction was done at 25° C. for 75 minutes, and the reaction mixture was filtered by suction filtration using Whatman glassfilter (GF-F) treated with polyethyleneimine. In addition, the filter was washed twice with 1.5 ml of washing buffer (25 mM Tris-HCl, 5 mM EDTA, 0.05% CHAPS, 0.1% BSA, pH 7.4). After filtration, a radioactivity remaining on the filter was counted using γ-counter, and an amount of specific binding was estimated by subtracting an amount of non-specific binding from an amount of maximum binding.
Where the concentration of membrane fraction was set to 3 μg/ml, an inhibition for the specific binding of [125I-Tyr^10]-hGPR8L (1-23) to the membrane fraction of TGR26 expressing cells by hGPR8L (1-23) and hGPR8L (1-30) was investigated.
A receptor binding activity of human- and porcine-homologue derivatives of GPR8 ligand peptide obtained in the reference examples was measured using a membrane fraction of TGR26 expressing CHO cells and [^125I-Tyr^10]-hGPR8L (1-23) by the method described in Example 8. The receptor binding activity is represented by concentration of 50% inhibition for binding (IC50 value).

SMILES | IC50 [nM]
CSCC[C@H](NC(=O)[C@H](CC(C)C)NC(=O)[C@H](CC(C)C)NC(=O)CNC(=O)[C@H](C)NC(=O)[C@H](C)NC(=O)[C@H](CCCNC(=N)N)NC(=O)CNC(=O)[C@@H](NC(=O)[C@@H](NC(=O)[C@H](Cc1c[nH]cn1)NC(=O)[C@H](Cc1ccc(O)cc1)NC(=O)[C@H](CCCNC(=N)N)NC(=O)[C@@H]1CCCN1C(=O)[C@H](CO)NC(=O)[C@H](C)NC(=O)[C@@H](NC(=O)[C@H](Cc1c[nH]cn1)NC(=O)[C@H](CCCCN)NC(=O)[C@H](Cc1ccc(O)cc1)NC(C)=O)C(C)C)[C@@H](C)O)C(C)C)C(=O)NCC(=O)N[C@@H](CC(C)C)C(=O)O [Ac-hGPR8L (2-23), Ac-Tyr-Lys-His -Val-Ala-Ser-Pro-Arg-Tyr-His-Thr-Val-Gly-Arg-Ala-Ala-Gly-Leu-Leu-Met-Gly-Leu] (Ac-YKHVASPRYHTVGRAAGLLMGL-OH; C-terminus assumed) | 570
CSCC[C@H](NC(=O)[C@H](CC(C)C)NC(=O)[C@H](CC(C)C)NC(=O)CNC(=O)[C@H](C)NC(=O)[C@H](C)NC(=O)[C@H](CCCNC(=N)N)NC(=O)CNC(=O)[C@@H](NC(=O)[C@@H](NC(=O)[C@H](Cc1c[nH]cn1)NC(=O)[C@H](Cc1ccc(O)cc1)NC(=O)[C@H](CCCNC(=N)N)NC(=O)[C@@H]1CCCN1C(=O)[C@H](CO)NC(=O)[C@H](C)NC(=O)[C@@H](NC(=O)[C@H](Cc1c[nH]cn1)NC(=O)[C@H](CCCCN)NC(=O)[C@H](Cc1ccc(O)cc1)NC(=O)[C@H](Cc1c[nH]c2ccccc12)NC(=O)OCC1c2ccccc2-c2ccccc21)C(C)C)[C@@H](C)O)C(C)C)C(=O)NCC(=O)N[C@@H](CC(C)C)C(=O)O [Fmoc-hGPR8L (1-23)] | 0.23
CSCC[C@H](NC(=O)[C@H](CC(C)C)NC(=O)[C@H](CC(C)C)NC(=O)CNC(=O)[C@H](C)NC(=O)[C@H](C)NC(=O)[C@H](CCCNC(=N)N)NC(=O)CNC(=O)[C@@H](NC(=O)[C@@H](NC(=O)[C@H](Cc1c[nH]cn1)NC(=O)[C@H](Cc1ccc(O)cc1)NC(=O)[C@H](CCCNC(=N)N)NC(=O)[C@@H]1CCCN1C(=O)[C@H](CO)NC(=O)[C@H](C)NC(=O)[C@@H](NC(=O)[C@H](Cc1c[nH]cn1)NC(=O)[C@H](CCCCN)NC(=O)[C@H](Cc1ccc(O)cc1)NC(=O)CCc1c[nH]c2ccccc12)C(C)C)[C@@H](C)O)C(C)C)C(=O)NCC(=O)N[C@@H](CC(C)C)C(=O)O [IndPr-hGPR8L (2-23)] (HELM PEPTIDE1{[O=C(CCc1c[nH]c2ccccc12)[*:2]].Y.K.H.V.A.S.P.R.Y.H.T.V.G.R.A.A.G.L.L.M.G.L}$$$$V2.0; C-terminus assumed) | 0.12
CSCC[C@H](NC(=O)[C@H](CC(C)C)NC(=O)[C@H](CC(C)C)NC(=O)CNC(=O)[C@H](C)NC(=O)[C@H](C)NC(=O)[C@H](CCCNC(=N)N)NC(=O)CNC(=O)[C@@H](NC(=O)[C@@H](NC(=O)[C@H](Cc1c[nH]cn1)NC(=O)[C@H](Cc1ccc(O)cc1)NC(=O)[C@H](CCCNC(=N)N)NC(=O)[C@@H]1CCCN1C(=O)[C@H](CO)NC(=O)[C@H](C)NC(=O)[C@@H](NC(=O)[C@H](Cc1c[nH]cn1)NC(=O)[C@H](CCCCN)NC(=O)[C@H](Cc1ccc(O)cc1)NC(=O)[C@H](N)Cc1c[nH]c2ccccc12)C(C)C)[C@@H](C)O)C(C)C)C(=O)NCC(=O)N[C@@H](CC(C)C)C(=O)O [[D-Trp^1]-hGPR8L (1-23), D-Trp-Tyr-Lys-His-Val -Ala-Ser-Pro-Arg-Tyr-His-Thr-Val-Gly-Arg-Ala-Ala-Gly-Leu-Leu-Met-Gly-Leu] | 1.3
CC(C)C[C@H](NC(=O)CNC(=O)[C@H](CC[S+](C)[O-])NC(=O)[C@H](CC(C)C)NC(=O)[C@H](CC(C)C)NC(=O)CNC(=O)[C@H](C)NC(=O)[C@H](C)NC(=O)[C@H](CCCNC(=N)N)NC(=O)CNC(=O)[C@@H](NC(=O)[C@@H](NC(=O)[C@H](Cc1c[nH]cn1)NC(=O)[C@H](Cc1ccc(O)cc1)NC(=O)[C@H](CCCNC(=N)N)NC(=O)[C@@H]1CCCN1C(=O)[C@H](CO)NC(=O)[C@H](C)NC(=O)[C@@H](NC(=O)[C@H](Cc1c[nH]cn1)NC(=O)[C@H](CCCCN)NC(=O)[C@H](Cc1ccc(O)cc1)NC(=O)[C@@H](N)Cc1c[nH]c2ccccc12)C(C)C)[C@@H](C)O)C(C)C)C(=O)O (stereo partly drawn) [[Met(O)]-hGPR8L (1-23), Trp-Tyr-Lys-His-Val-Ala -Ser-Pro-Arg-Tyr-His-Thr-Val-Gly-Arg-Ala-Ala-Gly-Leu-Leu-Met(O)-Gly-Leu] | 0.29
CC(C)[C@H](NC(=O)[C@H](Cc1c[nH]cn1)NC(=O)[C@H](CCCCN)NC(=O)[C@H](Cc1ccc(O)cc1)NC(=O)[C@@H](N)Cc1c[nH]c2ccccc12)C(=O)N[C@@H](C)C(=O)N[C@@H](CO)C(=O)N1CCC[C@H]1C(=O)N[C@@H](CCCNC(=N)N)C(=O)N[C@@H](Cc1ccc(O)cc1)C(=O)N[C@@H](Cc1c[nH]cn1)C(=O)N[C@H](C(=O)N[C@H](C(=O)NCC(=O)N[C@@H](CCCNC(=N)N)C(=O)N[C@@H](C)C(=O)N[C@@H](C)C(=O)NCC(=O)O)C(C)C)[C@@H](C)O [hGPR8L (1-18), Trp-Tyr-Lys-His-Val-Ala-Ser -Pro-Arg-Tyr-His-Thr-Val-Gly-Arg-Ala-Ala-Gly] (H-WYKHVASPRYHTVGRAAG-OH; N-terminus and C-terminus assumed) | 760
CC(C)C[C@H](NC(=O)CNC(=O)[C@H](C)NC(=O)[C@H](C)NC(=O)[C@H](CCCNC(=N)N)NC(=O)CNC(=O)[C@@H](NC(=O)[C@@H](NC(=O)[C@H](Cc1c[nH]cn1)NC(=O)[C@H](Cc1ccc(O)cc1)NC(=O)[C@H](CCCNC(=N)N)NC(=O)[C@@H]1CCCN1C(=O)[C@H](CO)NC(=O)[C@H](C)NC(=O)[C@@H](NC(=O)[C@H](Cc1c[nH]cn1)NC(=O)[C@H](CCCCN)NC(=O)[C@H](Cc1ccc(O)cc1)NC(=O)[C@@H](N)Cc1c[nH]c2ccccc12)C(C)C)[C@@H](C)O)C(C)C)C(=O)O [hGPR8L (1-19), Trp-Tyr-Lys-His-Val-Ala-Ser -Pro-Arg-Tyr-His-Thr-Val-Gly-Arg-Ala-Ala-Gly-Leu] (H-WYKHVASPRYHTVGRAAGL-OH; N-terminus and C-terminus assumed) | 9.9
CC(C)C[C@H](NC(=O)[C@H](CC(C)C)NC(=O)CNC(=O)[C@H](C)NC(=O)[C@H](C)NC(=O)[C@H](CCCNC(=N)N)NC(=O)CNC(=O)[C@@H](NC(=O)[C@@H](NC(=O)[C@H](Cc1c[nH]cn1)NC(=O)[C@H](Cc1ccc(O)cc1)NC(=O)[C@H](CCCNC(=N)N)NC(=O)[C@@H]1CCCN1C(=O)[C@H](CO)NC(=O)[C@H](C)NC(=O)[C@@H](NC(=O)[C@H](Cc1c[nH]cn1)NC(=O)[C@H](CCCCN)NC(=O)[C@H](Cc1ccc(O)cc1)NC(=O)[C@@H](N)Cc1c[nH]c2ccccc12)C(C)C)[C@@H](C)O)C(C)C)C(=O)O [hGPR8L (1-20), Trp-Tyr-Lys-His-Val-Ala-Ser -Pro-Arg-Tyr-His-Thr-Val-Gly-Arg-Ala-Ala-Gly-Leu-Leu] (H-WYKHVASPRYHTVGRAAGLL-OH; N-terminus and C-terminus assumed) | 0.17
